These results are taken from the supplement of paper PMC11208160.

The data set can be described thus: recombinant UMI read abundance after kanamycin selection (control-corrected) (log10(CPM+1)); higher = more efficient recombination; extreme values may be limits of the assay; sequences stand for … in AGTGCAGAGAAAATCGGCCAGTTTTCTCTGCCTGCAGTCCGCATGCCGTGGGACCCCTTGGGTTCTAACCTGTTGCCTAGATTTATGCAGCGGACTGCCTTTCTCCCAAAGTGATAAACCGG…AGGTTGGTTTCACT; site = the 11-nt donor. Here is the method:
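Pooled E. coli donor-specificity screen for the IS621 bridge recombinase. Each library member carries a reprogrammed 11-nt donor and a full-length LE bridge RNA expressed in cis from the natural promoter, with a paired donor-binding loop (8-nt LDG + 4-nt RDG) and a target-binding loop fixed to T5. It is co-electroporated with a T5 target plasmid; recombinase is induced with 0.07 mM IPTG and recombinants are selected on kanamycin. UMIs are counted as CPM, averaged over two biological replicates and corrected by the unselected control. Molecule = full bridge RNA written as DNA, built from the T5 scaffold: LDG = donor specificity nt 1-8, RDG = reverse complement of nt 8-11.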
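Note: IS621 bridge recombinase in Escherichia coli cells against a fixed T5 target plasmid.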

In the case of “AAAAAGGCATGGACCGGTTTTCCCGGTAATCCGTATTTGCT (site AAAAAGGCTAG)”, the “recombinant UMI read abundance (log10)” value was 1.88. Under “AAAAAGGCATGGACCGGTTTTCCCGGTAATCCGTATTTGCT (site ACAAAGGCTAG)” stands 1.19; under “AAAAAGGCATGGACCGGTTTTCCCGGTAATCCGTATTTGCT (site AGAAAGGCTAG)”, 0.722.

For “AAAAAGGCATGGACCGGTTTTCCCGGTAATCCGTATTTGCT (site ATAAAGGCTAG)”, the “recombinant UMI read abundance (log10)” value was determined as 1.59. Under “AAAACCACATGGACCGGTTTTCCCGGTAATCCGTATTTGCT (site AAAACCACTAG)” stands 1.82; under “AAAATATCATGGACCGGTTTTCCCGGTAATCCGTATTTGCA (site AAAATATCTTG)”, 2.21.

Take “AAAATATCATGGACCGGTTTTCCCGGTAATCCGTATTTGCA (site ACAGTATCTTG)”: the “recombinant UMI read abundance (log10)” value stood at 1.88. For “AAACGCACATGGACCGGTTTTCCCGGTAATCCGTATTTGGG (site AAACGCACTCC)”, the “recombinant UMI read abundance (log10)” value worked out at 0.0145.

With “AAACGGGCATGGACCGGTTTTCCCGGTAATCCGTATTTGCG (site AAACGGGCTCG)”, the “recombinant UMI read abundance (log10)” value was 0.661.

As to “AAACTGTCATGGACCGGTTTTCCCGGTAATCCGTATTTGCC (site AAACTGTCTGG)”, the “recombinant UMI read abundance (log10)” value is 1.79.

In the case of “AAACTGTCATGGACCGGTTTTCCCGGTAATCCGTATTTGTT (site AAACTGTCTAA)”, the “recombinant UMI read abundance (log10)” value was 1.97. Under “AAACTTGCATGGACCGGTTTTCCCGGTAATCCGTATTTGGA (site AAACTTGCTTC)” stands 0.688; under “AAAGATCCATGGACCGGTTTTCCCGGTAATCCGTATTTGGC (site AAAGATCCTGC)”, 0; under “AAAGCCCCATGGACCGGTTTTCCCGGTAATCCGTATTTGAA (site AAAGCCCCTTT)”, 0.767. Under “AAAGCCTCATGGACCGGTTTTCCCGGTAATCCGTATTTGAA (site AAAGCCTCTTT)” stands 2.63; under “AAAGCTCCATGGACCGGTTTTCCCGGTAATCCGTATTTGTA (site AAAGCTCCTTA)”, 1.42; under “AAAGGCACATGGACCGGTTTTCCCGGTAATCCGTATTTGAA (site AAAGGCACTTT)”, 0.56. Next, “AAAGGGACATGGACCGGTTTTCCCGGTAATCCGTATTTGAG (site AAAGGGACTCT)”: 1.76; “AAAGGGCCATGGACCGGTTTTCCCGGTAATCCGTATTTGAG (site AAAGGGCCTCT)”: 0.0224.

As for “AAAGTAGCATGGACCGGTTTTCCCGGTAATCCGTATTTGCT (site AAAGTAGCTAG)”, the “recombinant UMI read abundance (log10)” value turned out to be 1.94.

In the case of “AAAGTCACATGGACCGGTTTTCCCGGTAATCCGTATTTGGG (site AAAGTCACTCC)”, the “recombinant UMI read abundance (log10)” value was 0.0214. Under “AAAGTCACATGGACCGGTTTTCCCGGTAATCCGTATTTGGG (site CAAGTCACTCC)” stands 0.458. Under “AAAGTCACATGGACCGGTTTTCCCGGTAATCCGTATTTGGG (site GAAGTCACTCC)” stands 0.00503. Next, “AAAGTCACATGGACCGGTTTTCCCGGTAATCCGTATTTGGG (site TAAGTCACTCC)”: 0.158. As for “AAATACACATGGACCGGTTTTCCCGGTAATCCGTATTTGCT (site AAATACACTAG)”, the “recombinant UMI read abundance (log10)” value was determined as 2.41. Under “AAATATGCATGGACCGGTTTTCCCGGTAATCCGTATTTGGA (site AAATATGCTTC)” stands 1.25; under “AAATATGCATGGACCGGTTTTCCCGGTAATCCGTATTTGGA (site AACTATGCTTC)”, 1; under “AAATATGCATGGACCGGTTTTCCCGGTAATCCGTATTTGGA (site AAGTATGCTTC)”, 1.23. Under “AAATATGCATGGACCGGTTTTCCCGGTAATCCGTATTTGGA (site AATTATGCTTC)” stands 0.905. Under “AAATCGACATGGACCGGTTTTCCCGGTAATCCGTATTTGGT (site AAATCGACTAC)” stands 0.133; under “AAATCGTCATGGACCGGTTTTCCCGGTAATCCGTATTTGTC (site AAATCGTCTGA)”, 1.91. In the case of “AAATGAGCATGGACCGGTTTTCCCGGTAATCCGTATTTGGG (site AAATGAGCTCC)”, the “recombinant UMI read abundance (log10)” value is 0.252. “AAATGAGCATGGACCGGTTTTCCCGGTAATCCGTATTTGGG (site CAATGAGCTCC)”: the “recombinant UMI read abundance (log10)” value was determined as 0.247.

Turning to “AAATGAGCATGGACCGGTTTTCCCGGTAATCCGTATTTGGG (site GAATGAGCTCC)”, the “recombinant UMI read abundance (log10)” value amounted to 0.00588. Next, “AAATGAGCATGGACCGGTTTTCCCGGTAATCCGTATTTGGG (site TAATGAGCTCC)”: 0.46. Consider “AAATGATCATGGACCGGTTTTCCCGGTAATCCGTATTTGAG (site AAATGATCTCT)”, for which the “recombinant UMI read abundance (log10)” value came out at 2.71.

In the case of “AAATGCACATGGACCGGTTTTCCCGGTAATCCGTATTTGGG (site AAATGCACTCC)”, the “recombinant UMI read abundance (log10)” value turned out to be 0.0107. Regarding “AAATGCTCATGGACCGGTTTTCCCGGTAATCCGTATTTGAA (site AAATGCTCTTT)”, the “recombinant UMI read abundance (log10)” value was found to be 1.66. Under “AAATGCTCATGGACCGGTTTTCCCGGTAATCCGTATTTGAA (site CAATGCTCTTT)” stands 1.65; under “AAATGCTCATGGACCGGTTTTCCCGGTAATCCGTATTTGAA (site GAATGCTCTTT)”, 0.961. For the sequence “AAATGCTCATGGACCGGTTTTCCCGGTAATCCGTATTTGAA (site TAATGCTCTTT)”, the “recombinant UMI read abundance (log10)” value turned out to be 1.17. Under “AAATGGCCATGGACCGGTTTTCCCGGTAATCCGTATTTGCA (site AAATGGCCTTG)” stands 0.00935; under “AAATGGCCATGGACCGGTTTTCCCGGTAATCCGTATTTGCA (site CAATGGCCTTG)”, 0. Under “AAATGGCCATGGACCGGTTTTCCCGGTAATCCGTATTTGCA (site GAATGGCCTTG)” stands 0; under “AAATGGCCATGGACCGGTTTTCCCGGTAATCCGTATTTGCA (site TAATGGCCTTG)”, 0. On to “AAATTTGCATGGACCGGTTTTCCCGGTAATCCGTATTTGGC (site AAATTTGCTGC)”, for which the “recombinant UMI read abundance (log10)” value amounted to 0.

As for “AACAAACCATGGACCGGTTTTCCCGGTAATCCGTATTTGGT (site AACAAACCTAC)”, the “recombinant UMI read abundance (log10)” value worked out at 0. Under “AACAAACCATGGACCGGTTTTCCCGGTAATCCGTATTTGGT (site CACAAACCTAC)” stands 0. On to “AACAAACCATGGACCGGTTTTCCCGGTAATCCGTATTTGGT (site GACAAACCTAC)”, for which the “recombinant UMI read abundance (log10)” value stood at 0. As to “AACAAACCATGGACCGGTTTTCCCGGTAATCCGTATTTGGT (site TACAAACCTAC)”, the “recombinant UMI read abundance (log10)” value was 0.337. Under “AACACCCCATGGACCGGTTTTCCCGGTAATCCGTATTTGAG (site AACACCCCTCT)” stands 0.0941; under “AACACTGCATGGACCGGTTTTCCCGGTAATCCGTATTTGAG (site AACACTGCTCT)”, 1.31.
